Measured values published in patent publication US20260327264A1, “PEPTIDE INHIBITORS OF INTERLEUKIN-23 RECEPTOR” (Zealand Pharma A/S, priority 2023, published 2026).
Read-outs that look alike come from different tables or passages of the source. *1 amine or outer side, *2 acyl side, *3 side chain or, on linkers, in order; H or OH if unused. Where a SMILES comes first, the peptide text is derived from it. Bridges are numbered along the chain shown (N, C = ends). [ ]: non-standard residue; d: D form. The star is where a group is joined. 2Nal = N[C@@H](Cc1ccc2ccccc2c1)C(=O)O; AEF = NCCOc1ccc(C[C@H](N)C(=O)O)cc1; X1 = O=C(Cc1ccc(CN[*:1])cc1)[*:2]; 3Pal = N[C@@H](Cc1cccnc1)C(=O)O; αMeL = CC(C)C[C@](C)(N)C(=O)O; Orn = NCCC[C@H](N)C(=O)O; Pyrrolidide = C1CCN(*)C1; Dab = NCC[C@H](N)C(=O)O

Tests used:
[1] = Peptide stability in simulated gastric fluid (SGF); format: in vitro ADME; conditions: pig, pH 1.2, pepsin, 37° C.
In short: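 Peptide (10 μM final) incubated at 37 °C in USP SGF, pH 1.2 with porcine pepsin 3.2 g/L; aliquots at 0, 1 and 4 h quenched in acidified acetonitrile.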

[2] = Peptide stability in simulated intestinal fluid (SIF); format: in vitro ADME; conditions: pig, simulated intestinal fluid, SIF, pH 6.8, pancreatin, 37° C., 10 μM; for remaining at 4 h, 10 µM: read-out: SIF (% remaining 4 h)
In short: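 Peptide at 10 μM final in USP-type SIF (10 g/L porcine pancreatin, phosphate buffer pH 6.8), shaken at 37 °C. Samples at 0, 1 and 4 h quenched in acetonitrile/0.1% formic acid and analysed by LC-HRMS. Percent remaining calculated from absolute peak areas relative to time zero.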

human IL-23R = molecular target: T1, human IL-23R (Homo sapiens, UniProt Q5VWK5); experiment: Binding assay: displacement of fluorophore (TAMRA)-labelled reference compound from human IL-23R (BRET, Nluc-IL23R fusion protein membranes); conditions: for Emax: read-out: % displacement (hIL-23R binding)
T1 construct: Nanoluc luciferase (Nluc); secretion signal encoded by the plasmid (not specified); expressed in transfected cells; crude membranes used in the assay
T1 sequence (Q5VWK5 22-629): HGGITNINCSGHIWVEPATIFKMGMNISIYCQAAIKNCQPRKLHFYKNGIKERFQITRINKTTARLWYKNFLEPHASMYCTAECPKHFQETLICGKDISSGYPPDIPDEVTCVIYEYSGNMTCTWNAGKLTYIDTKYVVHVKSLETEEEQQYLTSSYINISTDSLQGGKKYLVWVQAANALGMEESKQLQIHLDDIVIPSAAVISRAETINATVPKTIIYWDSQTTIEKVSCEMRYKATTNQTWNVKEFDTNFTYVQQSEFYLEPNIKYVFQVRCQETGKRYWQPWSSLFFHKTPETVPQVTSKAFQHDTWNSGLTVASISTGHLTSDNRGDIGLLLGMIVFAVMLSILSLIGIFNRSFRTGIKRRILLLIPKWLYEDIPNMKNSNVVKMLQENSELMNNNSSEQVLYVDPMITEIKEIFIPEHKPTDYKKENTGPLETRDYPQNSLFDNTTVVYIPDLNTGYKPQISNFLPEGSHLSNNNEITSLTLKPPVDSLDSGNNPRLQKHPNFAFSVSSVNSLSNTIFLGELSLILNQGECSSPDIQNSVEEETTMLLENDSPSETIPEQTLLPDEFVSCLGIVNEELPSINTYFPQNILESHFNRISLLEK

[3] = system: IL-23 mediated STAT3 signalling (DB cells); experiment: Functional inhibition of IL-23 mediated STAT3 signalling (phospho-STAT3 Tyr705) in DB cells; format: cell-based, human; conditions: for hIL-23 (pSTAT3) antagonist % inhibition: Table 3-2, maximal inhibitory response, EC80 of hIL-23
In short: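 DB cells preincubated 15 min with inhibitor at 37° C, 5% CO2, then stimulated 90 min with hIL-23 at EC80. Lysate phospho-STAT3 measured by MSD electrochemiluminescence. Signal normalized to IL-23-alone and buffer wells; IC50 and maximal inhibition from concentration–response curves.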

[4] = Table 3-2, EC80 of hIL-23, read-out: hIL-23 (pSTAT3) antagonist IC50

Row | remaining at 1 h, 10 µM [1] [%] | remaining at 1 h, 10 µM [2] [%] | Emax (human IL-23R) [%] | IC50 ([3]; EC80 of hIL-23, read-out: IC50 (pSTAT3)) [nM] | IC50 [3, 4] [nM] | IC50 (human IL-23R) [nM] | remaining at 4 h, 10 µM [1] [%] | remaining at 4 h, 10 µM [2] [%] | SMILES | hIL-23 (pSTAT3) antagonist % inhibition [3] [%]
1 | 94 | 84 | 100 | 6.8 | 6.8 | – | – | – | CC(C)C[C@]1(C)NC(=O)[C@H](Cc2ccc3ccccc3c2)NC(=O)[C@H](Cc2ccc(OCCN)cc2)NC(=O)[C@@H]2CCNC(=O)CC[C@H](NC(=O)[C@H](CO)NC(=O)Cc3ccc(cc3)CNC(=O)CC[C@@H](C(=O)N[C@@H](CCN)C(=O)N[C@H](Cc3c[nH]cn3)C(N)=O)NC1=O)C(=O)N[C@@H](Cc1c[nH]c3ccccc13)C(=O)N[C@@H](CCC(N)=O)C(=O)N2 [Compound 13, [4-Aminomethyl-phenylacetyl](1c)*SE(2c)WQ[Dab](2c)[Y(2-aminoethoxy)][2-Nal][2-Me-Leu]E(1c)[Dab][{d}H]-[NH2]] | 99
2 | 93 | 98 | 102 | – | 7.2 | 0.11 | – | – | CC(C)C[C@]1(C)NC(=O)[C@H](Cc2ccc3ccccc3c2)NC(=O)[C@H](Cc2ccc(OCCN)cc2)NC(=O)[C@@H]2CCNC(=O)CC[C@H](NC(=O)[C@H](CO)NC(=O)Cc3ccc(cc3)CNC(=O)CC[C@@H](C(=O)N[C@@H](CCN)C(=O)N[C@@H](Cc3cn(C)cn3)C(N)=O)NC1=O)C(=O)N[C@@H](Cc1c[nH]c3ccccc13)C(=O)N[C@@H](CCC(N)=O)C(=O)N2 [Compound 14, [4-Aminomethyl-phenylacetyl](1c)*SE(2c)WQ[Dab](2c)[Y(2-aminoethoxy)][2-Nal][2-Me-Leu]E(1c)[Dab][H(Me)]-[NH2]] | 99
3 | 92 | 94 | 104 | – | 0.077 | – | 89 | – | CNC(=O)[C@H](Cc1cccnc1)NC(=O)[C@H](CCN)NC(=O)[C@@H]1CCC(=O)NCc2ccc(cc2)CC(=O)N[C@@H](CO)C(=O)N[C@H]2CCC(=O)NCC[C@H](NC(=O)[C@H](CCC(=O)N(C)C)NC(=O)[C@H](Cc3c[nH]c4ccccc34)NC2=O)C(=O)N[C@@H](Cc2ccc(OCCN)cc2)C(=O)N[C@@H](Cc2ccc3ccccc3c2)C(=O)N[C@@](C)(CC(C)C)C(=O)N1 [Compound 30, [4-Aminomethyl-phenylacetyl](1c)*SE(2c)W[Q(2Me)][Dab](2c)[Y(2-aminoethoxy)][2-Nal][2-Me-Leu]E(1c)[Dab][3-(3-Pyridyl)-Ala]-[NHMe]] ([X1]SEWE(NMe2)[Dab][AEF][2Nal][αMeL]E[Dab][3Pal]-NHMe; lactam 3-6, N-10) | 103
4 | 101 | 77 | 97 | – | 0.06 | – | 99 | – | CNC(=O)[C@H](Cc1cccnc1)NC(=O)[C@H](CO)NC(=O)[C@@H]1CCC(=O)NCc2ccc(cc2)CC(=O)N[C@@H](CO)C(=O)N[C@H]2CCC(=O)NCC[C@H](NC(=O)[C@H](CCC(N)=O)NC(=O)[C@H](Cc3c[nH]c4ccccc34)NC2=O)C(=O)N[C@@H](Cc2ccc(OCCN)cc2)C(=O)N[C@@H](Cc2ccc3ccccc3c2)C(=O)N[C@@](C)(CC(C)C)C(=O)N1 [Compound 31, [4-Aminomethyl-phenylacetyl](1c)*SE(2c)WQ[Dab](2c)[Y(2-aminoethoxy)][2-Nal][2-Me-Leu]E(1c)S[3-(3-Pyridyl)-Ala]-[NHMe]] ([X1]SEWQ[Dab][AEF][2Nal][αMeL]ES[3Pal]-NHMe; lactam 3-6, N-10) | 101
5 | – | 99 | 94 | – | 0.034 | – | 103 | – | CNC(=O)[C@H](Cc1cccnc1)NC(=O)[C@H](CCO)NC(=O)[C@@H]1CCC(=O)NCc2ccc(cc2)CC(=O)N[C@@H](CO)C(=O)N[C@H]2CCC(=O)NCC[C@H](NC(=O)[C@H](CCC(N)=O)NC(=O)[C@H](Cc3c[nH]c4ccccc34)NC2=O)C(=O)N[C@@H](Cc2ccc(OCCN)cc2)C(=O)N[C@@H](Cc2ccc3ccccc3c2)C(=O)N[C@@](C)(CC(C)C)C(=O)N1 [Compound 36, [4-Aminomethyl-phenylacetyl](1c)*SE(2c)WQ[Dab](2c)[Y(2-aminoethoxy)][2-Nal][2-Me-Leu]E(1c)[hSer][3-(3-Pyridyl)-Ala]-[NHMe]] | 103

Continued, molecule first:

Row | SMILES | remaining at 1 h, 10 µM [1] [%] | remaining at 1 h, 10 µM [2] [%] | Emax (human IL-23R) [%] | IC50 ([3]; EC80 of hIL-23, read-out: IC50 (pSTAT3)) [nM] | IC50 [3, 4] [nM] | IC50 (human IL-23R) [nM] | remaining at 4 h, 10 µM [1] [%] | remaining at 4 h, 10 µM [2] [%] | hIL-23 (pSTAT3) antagonist % inhibition [3] [%]
6 | CNC(=O)[C@H](Cc1cccnc1)NC(=O)[C@H](CCN)NC(=O)[C@@H]1CCC(=O)NCc2ccc(cc2)CC(=O)N[C@@H](CO)C(=O)N[C@H]2CCC(=O)NCC[C@H](NC(=O)[C@H](CCCCNC(C)=O)NC(=O)[C@H](Cc3c[nH]c4ccccc34)NC2=O)C(=O)N[C@@H](Cc2ccc(OCCN)cc2)C(=O)N[C@@H](Cc2ccc3ccccc3c2)C(=O)N[C@@](C)(CC(C)C)C(=O)N1 [Compound 24, [4-Aminomethyl-phenylacetyl](1c)*SE(2c)W[K(Ac)][Dab](2c)[Y(2-aminoethoxy)][2-Nal][2-Me-Leu]E(1c)[Dab][3-(3-Pyridyl)-Ala]-[NHMe]] ([X1]SEWK(Ac)[Dab][AEF][2Nal][αMeL]E[Dab][3Pal]-NHMe; lactam 3-6, N-10) | 93 | 91 | 97 | – | 0.058 | – | 90 | 89 | 98
7 | CNC(=O)[C@H](Cc1cccnc1)NC(=O)[C@H](CCN)NC(=O)[C@@H]1CCC(=O)NCc2ccc(cc2)CC(=O)N[C@@H](CO)C(=O)N[C@H]2CCC(=O)NCC[C@H](NC(=O)[C@H](CCNC(C)=O)NC(=O)[C@H](Cc3c[nH]c4ccccc34)NC2=O)C(=O)N[C@@H](Cc2ccc(OCCN)cc2)C(=O)N[C@@H](Cc2ccc3ccccc3c2)C(=O)N[C@@](C)(CC(C)C)C(=O)N1 [Compound 25, [4-Aminomethyl-phenylacetyl](1c)*SE(2c)W[Dab(Ac)][Dab](2c)[Y(2-aminoethoxy)][2-Nal][2-Me-Leu]E(1c)[Dab][3-(3-Pyridyl)-Ala]-[NHMe]] ([X1]SEW[Dab](Ac)[Dab][AEF][2Nal][αMeL]E[Dab][3Pal]-NHMe; lactam 3-6, N-10) | 93 | 88 | – | – | 0.076 | 0.011 | – | – | 100
8 | CNC(=O)[C@H](Cc1cccnc1)NC(=O)[C@H](CCN)NC(=O)[C@@H]1CCC(=O)NCc2ccc(cc2)CC(=O)N[C@@H](CO)C(=O)N[C@H]2CCC(=O)NCC[C@H](NC(=O)[C@H](CCC(=O)N3CCCC3)NC(=O)[C@H](Cc3c[nH]c4ccccc34)NC2=O)C(=O)N[C@@H](Cc2ccc(OCCN)cc2)C(=O)N[C@@H](Cc2ccc3ccccc3c2)C(=O)N[C@@](C)(CC(C)C)C(=O)N1 [Compound 27, [4-Aminomethyl-phenylacetyl](1c)*SE(2c)W[Q(pyrrolidin)][Dab](2c)[Y(2-aminoethoxy)][2-Nal][2-Me-Leu]E(1c)[Dab][3-(3-Pyridyl)-Ala]-[NHMe]] ([X1]SEWE(Pyrrolidide)[Dab][AEF][2Nal][αMeL]E[Dab][3Pal]-NHMe; lactam 3-6, N-10) | 101 | 90 | 97 | – | 0.23 | 0.017 | 96 | 85 | 100
9 | CNC(=O)[C@H](Cc1cccnc1)NC(=O)[C@H](CCN)NC(=O)[C@@H]1CCC(=O)NCc2ccc(cc2)CC(=O)N[C@@H](CO)C(=O)N[C@H]2CCC(=O)NCC[C@H](NC(=O)[C@H](CCCN)NC(=O)[C@H](Cc3c[nH]c4ccccc34)NC2=O)C(=O)N[C@@H](Cc2ccc(OCCN)cc2)C(=O)N[C@@H](Cc2ccc3ccccc3c2)C(=O)N[C@@](C)(CC(C)C)C(=O)N1 [Compound 28, [4-Aminomethyl-phenylacetyl](1c)*SE(2c)W[Orn][Dab](2c)[Y(2-aminoethoxy)][2-Nal][2-Me-Leu]E(1c)[Dab][3-(3-Pyridyl)-Ala]-[NHMe]] ([X1]SEW[Orn][Dab][AEF][2Nal][αMeL]E[Dab][3Pal]-NHMe; lactam 3-6, N-10) | 100 | 106 | 97 | – | 0.052 | 0.011 | – | – | 101
